Data reported in ChEMBL document CHEMBL3526080, “In vitro inhibition of the bile salt export pump correlates with risk of cholestatic drug-induced liver injury in humans” (Drug Metab Dispos, 2012).
pIC50: −log10 of the molar value.

Columns and labels:
[1] = biological target: Bile salt export pump (Rattus norvegicus, UniProt O70127); experiment: Inhibition of Sprague-Dawley rat Bsep expressed in plasma membrane vesicles of Sf21 cells assessed as inhibition of ATP-dependent [3H]taurocholate uptake; assay type: cell membranes
Bile salt export pump (Rattus norvegicus, UniProt O70127), sequence (O70127 whole entry): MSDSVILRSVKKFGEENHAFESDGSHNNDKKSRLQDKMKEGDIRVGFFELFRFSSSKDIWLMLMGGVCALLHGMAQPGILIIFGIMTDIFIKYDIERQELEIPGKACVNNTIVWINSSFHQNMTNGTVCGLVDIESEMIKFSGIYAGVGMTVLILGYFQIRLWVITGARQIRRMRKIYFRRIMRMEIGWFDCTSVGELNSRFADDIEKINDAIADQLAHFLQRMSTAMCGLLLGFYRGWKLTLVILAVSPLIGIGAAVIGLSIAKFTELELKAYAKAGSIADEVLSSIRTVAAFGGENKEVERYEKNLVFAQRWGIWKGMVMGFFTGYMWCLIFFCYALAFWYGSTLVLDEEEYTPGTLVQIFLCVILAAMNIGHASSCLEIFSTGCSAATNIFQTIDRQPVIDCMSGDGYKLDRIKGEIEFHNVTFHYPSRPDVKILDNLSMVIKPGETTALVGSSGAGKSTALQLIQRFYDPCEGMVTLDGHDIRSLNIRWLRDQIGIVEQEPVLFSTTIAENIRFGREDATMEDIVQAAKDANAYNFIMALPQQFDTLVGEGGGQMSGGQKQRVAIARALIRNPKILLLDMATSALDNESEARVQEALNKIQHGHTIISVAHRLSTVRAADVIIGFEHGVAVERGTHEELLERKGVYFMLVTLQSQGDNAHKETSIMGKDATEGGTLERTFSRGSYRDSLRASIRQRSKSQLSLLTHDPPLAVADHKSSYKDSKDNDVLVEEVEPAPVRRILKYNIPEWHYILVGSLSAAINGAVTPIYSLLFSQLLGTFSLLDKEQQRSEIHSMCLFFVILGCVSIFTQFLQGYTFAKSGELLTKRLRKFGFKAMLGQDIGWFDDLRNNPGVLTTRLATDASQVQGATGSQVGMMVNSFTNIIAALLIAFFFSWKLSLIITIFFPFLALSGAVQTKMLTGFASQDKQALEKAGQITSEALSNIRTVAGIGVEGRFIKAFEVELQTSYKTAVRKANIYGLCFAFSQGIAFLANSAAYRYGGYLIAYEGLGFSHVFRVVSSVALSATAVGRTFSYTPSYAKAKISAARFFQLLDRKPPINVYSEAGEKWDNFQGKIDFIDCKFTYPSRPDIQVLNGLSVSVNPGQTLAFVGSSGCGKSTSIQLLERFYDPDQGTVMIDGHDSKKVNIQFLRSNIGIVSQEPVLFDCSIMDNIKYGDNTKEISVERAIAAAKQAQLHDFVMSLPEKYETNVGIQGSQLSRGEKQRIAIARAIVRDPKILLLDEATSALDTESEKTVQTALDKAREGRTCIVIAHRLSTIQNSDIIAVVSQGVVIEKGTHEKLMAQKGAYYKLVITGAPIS

[2] = biological target: Bile salt export pump (Homo sapiens, UniProt O95342); experiment: Inhibition of human BSEP expressed in plasma membrane vesicles of Sf21 cells assessed as inhibition of ATP-dependent [3H]taurocholate uptake; assay type: cell membranes
Bile salt export pump (Homo sapiens, UniProt O95342), sequence (O95342 whole entry): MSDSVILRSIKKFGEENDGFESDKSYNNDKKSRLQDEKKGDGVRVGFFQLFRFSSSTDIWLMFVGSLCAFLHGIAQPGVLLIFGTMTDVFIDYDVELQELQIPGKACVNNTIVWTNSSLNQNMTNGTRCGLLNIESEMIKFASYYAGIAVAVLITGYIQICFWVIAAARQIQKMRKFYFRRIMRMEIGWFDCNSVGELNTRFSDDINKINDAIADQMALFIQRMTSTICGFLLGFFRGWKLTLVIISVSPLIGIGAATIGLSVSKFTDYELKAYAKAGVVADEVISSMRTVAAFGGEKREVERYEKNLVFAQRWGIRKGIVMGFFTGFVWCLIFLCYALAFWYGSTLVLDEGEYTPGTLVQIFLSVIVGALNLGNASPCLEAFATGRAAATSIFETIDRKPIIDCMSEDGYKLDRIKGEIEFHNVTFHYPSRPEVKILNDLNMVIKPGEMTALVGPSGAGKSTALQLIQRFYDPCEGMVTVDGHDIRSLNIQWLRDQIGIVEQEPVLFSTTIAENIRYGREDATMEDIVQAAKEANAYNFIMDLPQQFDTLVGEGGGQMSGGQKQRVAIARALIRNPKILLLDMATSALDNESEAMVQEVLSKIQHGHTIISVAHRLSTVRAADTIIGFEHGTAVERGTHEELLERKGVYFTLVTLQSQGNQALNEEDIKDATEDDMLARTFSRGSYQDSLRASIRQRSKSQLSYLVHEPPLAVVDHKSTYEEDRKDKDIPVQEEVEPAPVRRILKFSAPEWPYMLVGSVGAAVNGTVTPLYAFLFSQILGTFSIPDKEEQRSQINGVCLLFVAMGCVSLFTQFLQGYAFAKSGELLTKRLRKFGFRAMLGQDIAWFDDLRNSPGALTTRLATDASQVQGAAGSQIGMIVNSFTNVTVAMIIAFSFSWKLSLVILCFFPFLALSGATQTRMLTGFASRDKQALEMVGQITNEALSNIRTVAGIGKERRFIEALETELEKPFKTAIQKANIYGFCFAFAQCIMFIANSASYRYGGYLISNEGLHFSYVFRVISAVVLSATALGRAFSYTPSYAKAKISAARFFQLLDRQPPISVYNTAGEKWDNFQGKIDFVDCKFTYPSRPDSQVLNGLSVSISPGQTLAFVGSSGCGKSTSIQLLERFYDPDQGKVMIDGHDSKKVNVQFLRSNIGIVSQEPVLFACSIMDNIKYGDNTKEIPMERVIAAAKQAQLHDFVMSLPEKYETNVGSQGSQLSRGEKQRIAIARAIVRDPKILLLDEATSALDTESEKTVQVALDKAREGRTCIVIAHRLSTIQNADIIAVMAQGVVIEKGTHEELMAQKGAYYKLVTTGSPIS

Compound: CN(C)CCN(Cc1cccs1)c1ccccn1
- pIC50 [1]: < 3.00
- pIC50 [2]: < 3.00

Compound: CC1=C(CC(=O)O)c2cc(F)ccc2/C1=C\c1ccc([S+](C)[O-])cc1 (stereo unspecified)
- pIC50 [1]: 4.06
- pIC50 [2]: 3.65

Compound: CC(=O)Nc1ccc(O)cc1 [ACETAMINOPHEN]
- pIC50 [1]: < 3.00
- pIC50 [2]: < 3.00

Compound: COc1cc(C)c(/C=C/C(C)=C/C=C/C(C)=C/C(=O)O)c(C)c1C [ACITRETIN]
- pIC50 [1]: 4.71
- pIC50 [2]: 4.74

Compound: Nc1nc2c(ncn2COCCO)c(=O)[nH]1 [ACYCLOVIR]
- pIC50 [1]: < 3.00
- pIC50 [2]: < 3.00

Compound: CCCN(CCC)C(=O)Cc1c(-c2ccc(Cl)cc2)nc2ccc(Cl)cn12 [ALPIDEM]
- pIC50 [1]: 4.64
- pIC50 [2]: 5.04

Compound: CC1(C)S[C@@H]2[C@H](NC(=O)[C@H](N)c3ccc(O)cc3)C(=O)N2[C@H]1C(=O)O [AMOXICILLIN]
- pIC50 [1]: < 3.00
- pIC50 [2]: < 3.00

Compound: Cn1cnc([N+](=O)[O-])c1Sc1ncnc2nc[nH]c12 [AZATHIOPRINE]
- pIC50 [1]: < 3.00

Compound: CC(C(=O)O)c1ccc2oc(-c3ccc(Cl)cc3)nc2c1 (stereo unspecified) [BENOXAPROFEN]
- pIC50 [1]: 4.00
- pIC50 [2]: 3.76

Compound: C[N+](C)(C)CC(=O)O [BETAINE]
- pIC50 [1]: < 3.00
- pIC50 [2]: < 3.00

Compound: CC(C)(Oc1ccc(CCNC(=O)c2ccc(Cl)cc2)cc1)C(=O)O [BEZAFIBRATE]
- pIC50 [1]: 3.41
- pIC50 [2]: 3.64

Compound: COc1ccccc1Oc1c(NS(=O)(=O)c2ccc(C(C)(C)C)cc2)nc(-c2ncccn2)nc1OCCO [BOSENTAN]
- pIC50 [1]: 4.51
- pIC50 [2]: 4.42

Compound: O=C1CC2(CCCC2)CC(=O)N1CCCCN1CCN(c2ncccn2)CC1 [BUSPIRONE]
- pIC50 [1]: 3.43
- pIC50 [2]: 3.98

Compound: NC(=O)N1c2ccccc2C=Cc2ccccc21 [CARBAMAZEPINE]
- pIC50 [1]: < 3.00
- pIC50 [2]: < 3.00

Compound: O=NN(CCCl)C(=O)NCCCl [CARMUSTINE]
- pIC50 [1]: < 3.00
- pIC50 [2]: < 3.00

Compound: CN(C)CCCN1c2ccccc2Sc2ccc(Cl)cc21 [CHLORPROMAZINE]
- pIC50 [1]: 3.91
- pIC50 [2]: 3.83

Compound: CCCNC(=O)NS(=O)(=O)c1ccc(Cl)cc1 [CHLORPROPAMIDE]
- pIC50 [1]: < 3.00
- pIC50 [2]: < 3.00

Compound: O=C(O)c1cc(-c2ccccc2)nc2ccccc12 [CINCHOPHEN]
- pIC50 [1]: 3.53
- pIC50 [2]: 3.16

Compound: CC(C)(Oc1ccc(C2CC2(Cl)Cl)cc1)C(=O)O (stereo unspecified) [CIPROFIBRATE]
- pIC50 [1]: 3.72
- pIC50 [2]: 3.24

Compound: O=C(O)[C@H]1/C(=C/CO)O[C@@H]2CC(=O)N21 [CLAVULANIC ACID]
- pIC50 [1]: < 3.00
- pIC50 [2]: < 3.00

Compound: CCC(=O)O[C@]1(C(=O)CCl)[C@@H](C)C[C@H]2[C@@H]3CCC4=CC(=O)C=C[C@]4(C)[C@@]3(F)[C@@H](O)C[C@@]21C [CLOBETASOL PROPIONATE]
- pIC50 [1]: 4.46
- pIC50 [2]: 5.07

Compound: Cc1onc(-c2ccccc2Cl)c1C(=O)N[C@@H]1C(=O)N2[C@@H]1SC(C)(C)[C@@H]2C(=O)O [CLOXACILLIN]
- pIC50 [1]: 3.42
- pIC50 [2]: 3.66

Compound: CN1CCN(C2=Nc3cc(Cl)ccc3Nc3ccccc32)CC1 [CLOZAPINE]
- pIC50 [1]: 3.71
- pIC50 [2]: 3.90

Compound: O=C(O)c1cc(=O)c2c(OCC(O)COc3cccc4oc(C(=O)O)cc(=O)c34)cccc2o1 [CROMOLYN]
- pIC50 [1]: < 3.00
- pIC50 [2]: < 3.00

Compound: N[C@@H]1CON=C1O [CYCLOSERINE]
- pIC50 [1]: < 3.00
- pIC50 [2]: < 3.00

Compound: Nc1ccc(S(=O)(=O)c2ccc(N)cc2)cc1 [DAPSONE]
- pIC50 [1]: < 3.00

Compound: C[C@@H]1C[C@H]2[C@@H]3CCC4=CC(=O)C=C[C@]4(C)[C@@]3(F)[C@@H](O)C[C@]2(C)[C@@]1(O)C(=O)CO [DEXAMETHASONE]
- pIC50 [1]: 3.63
- pIC50 [2]: 3.86

Compound: Cc1onc(-c2c(Cl)cccc2Cl)c1C(=O)N[C@@H]1C(=O)N2[C@@H]1SC(C)(C)[C@@H]2C(=O)O [DICLOXACILLIN]
- pIC50 [1]: 3.95
- pIC50 [2]: 4.16

Compound: NNc1nnc(NN)c2ccccc12 [DIHYDRALAZINE]
- pIC50 [1]: < 3.00
- pIC50 [2]: < 3.00

Compound: COc1cc2c(cc1OC)C(=O)C(CC1CCN(Cc3ccccc3)CC1)C2 (stereo unspecified) [DONEPEZIL]
- pIC50 [1]: 3.28
- pIC50 [2]: 3.69

Compound: NCCc1ccc(O)c(O)c1 [DOPAMINE]
- pIC50 [1]: < 3.00
- pIC50 [2]: < 3.00

Compound: CCC(=O)O[C@H]1[C@H](O[C@@H]2[C@@H](C)[C@H](O[C@H]3C[C@@](C)(OC)[C@@H](O)[C@H](C)O3)[C@@H](C)C(=O)O[C@H](CC)[C@@](C)(O)[C@H](O)[C@@H](C)C(=O)[C@H](C)C[C@@]2(C)O)O[C@H](C)C[C@@H]1N(C)C [ERYTHROMYCIN ESTOLATE]
- pIC50 [1]: 4.94
- pIC50 [2]: 5.39

Compound: NC(N)=Nc1nc(CSCCC(N)=NS(N)(=O)=O)cs1 [FAMOTIDINE]
- pIC50 [1]: < 3.00
- pIC50 [2]: < 3.00

Compound: NC(=O)OCC(COC(N)=O)c1ccccc1 [FELBAMATE]
- pIC50 [1]: < 3.00
- pIC50 [2]: < 3.00

Compound: O=C(O)Cc1csc(-c2ccc(Cl)cc2)n1 [FENCLOZIC ACID]
- pIC50 [1]: < 3.00
- pIC50 [2]: < 3.00

Compound: O=c1[nH]c(=O)n([C@@H]2O[C@H](CO)[C@@H](O)[C@@H]2F)cc1I [FIALURIDINE]
- pIC50 [1]: < 3.00
- pIC50 [2]: < 3.00

Compound: Cc1onc(-c2c(F)cccc2Cl)c1C(=O)N[C@@H]1C(=O)N2[C@@H]1SC(C)(C)[C@@H]2C(=O)O [FLOXACILLIN]
- pIC50 [1]: 3.37
- pIC50 [2]: 3.68

Compound: CCOC(=O)c1ncn2c1CN(C)C(=O)c1cc(F)ccc1-2 [FLUMAZENIL]
- pIC50 [1]: < 3.00
- pIC50 [2]: < 3.00

Compound: CC(C)C(=O)Nc1ccc([N+](=O)[O-])c(C(F)(F)F)c1 [FLUTAMIDE]
- pIC50 [1]: 4.10
- pIC50 [2]: 3.84

Compound: NS(=O)(=O)c1cc(C(=O)O)c(NCc2ccco2)cc1Cl [FUROSEMIDE]
- pIC50 [1]: < 3.00

Compound: CC(=O)O[C@H]1C[C@@]2(C)[C@@H](C[C@@H](O)[C@H]3[C@@]4(C)CC[C@@H](O)[C@@H](C)[C@@H]4CC[C@@]32C)/C1=C(\CCC=C(C)C)C(=O)O [FUSIDIC ACID]
- pIC50 [1]: 4.76
- pIC50 [2]: 4.94

Compound: O=C(OCC(O)CO)c1ccccc1Nc1ccnc2cc(Cl)ccc12 (stereo unspecified) [GLAFENINE]
- pIC50 [1]: 4.49
- pIC50 [2]: 4.65

Compound: Cc1ccc(S(=O)(=O)NC(=O)NN2CC3CCCC3C2)cc1 (stereo unspecified) [GLICLAZIDE]
- pIC50 [1]: < 3.00
- pIC50 [2]: < 3.00

Compound: COc1ccc(Cl)cc1C(=O)NCCc1ccc(S(=O)(=O)NC(=O)NC2CCCCC2)cc1 [GLYBURIDE]
- pIC50 [1]: 5.55

Compound: CC(C)Cc1ccc(C(C)C(=O)O)cc1 (stereo unspecified) [IBUPROFEN]
- pIC50 [1]: 3.54
- pIC50 [2]: 3.22

Compound: CC(C)NNC(=O)c1ccncc1 [IPRONIAZID]
- pIC50 [1]: < 3.00
- pIC50 [2]: < 3.00

Compound: NNC(=O)c1ccncc1 [ISONIAZID]
- pIC50 [1]: < 3.00
- pIC50 [2]: < 3.00

Compound: CC(C)NCC(O)c1ccc(O)c(O)c1 (stereo unspecified) [ISOPROTERENOL]
- pIC50 [1]: < 3.00
- pIC50 [2]: < 3.00

Compound: CC(=O)N1CCN(c2ccc(OCC3COC(Cn4ccnc4)(c4ccc(Cl)cc4Cl)O3)cc2)CC1 (stereo unspecified) [KETOCONAZOLE]
- pIC50 [1]: 4.81

Compound: CN1CCC(=C2c3ccccc3CC(=O)c3sccc32)CC1 [KETOTIFEN]
- pIC50 [1]: < 3.00
- pIC50 [2]: 3.13

Compound: Cc1oncc1C(=O)Nc1ccc(C(F)(F)F)cc1 [LEFLUNOMIDE]
- pIC50 [1]: 3.95
- pIC50 [2]: 3.75

Compound: C[C@H]1COc2c(N3CCN(C)CC3)c(F)cc3c(=O)c(C(=O)O)cn1c23 [LEVOFLOXACIN]
- pIC50 [1]: < 3.00
- pIC50 [2]: < 3.00

Compound: CN(Cc1cnc2nc(N)nc(N)c2n1)c1ccc(C(=O)N[C@@H](CCC(=O)O)C(=O)O)cc1 [METHOTREXATE]
- pIC50 [1]: < 3.00
- pIC50 [2]: < 3.00

Compound: C[C@](N)(Cc1ccc(O)c(O)c1)C(=O)O [METHYLDOPA]
- pIC50 [1]: < 3.00
- pIC50 [2]: < 3.00

Compound: CCc1nn(CCCN2CCN(c3cccc(Cl)c3)CC2)c(=O)n1CCOc1ccccc1 [NEFAZODONE]
- pIC50 [1]: 4.76
- pIC50 [2]: 5.38

Compound: COC(=O)C1=C(C)NC(C)=C(C(=O)OC)C1c1ccccc1[N+](=O)[O-] [NIFEDIPINE]
- pIC50 [1]: 4.34
- pIC50 [2]: 4.51

Compound: O=C1CN(/N=C/c2ccc([N+](=O)[O-])o2)C(=O)N1 [NITROFURANTOIN]
- pIC50 [1]: < 3.00

Compound: CN1Cc2c(N)cccc2C(c2ccccc2)C1 (stereo unspecified) [NOMIFENSINE]
- pIC50 [1]: < 3.00
- pIC50 [2]: < 3.00

Compound: C#CCN(C)Cc1ccccc1 [PARGYLINE]
- pIC50 [1]: < 3.00
- pIC50 [2]: < 3.00

Compound: CC(C)(S)[C@@H](N)C(=O)O [PENICILLAMINE]
- pIC50 [1]: < 3.00
- pIC50 [2]: < 3.00

Compound: CNC(=O)Oc1ccc2c(c1)[C@]1(C)CCN(C)[C@@H]1N2C [PHYSOSTIGMINE]
- pIC50 [1]: < 3.00
- pIC50 [2]: < 3.00

Compound: COc1ccc(C(=O)NCc2cccnc2)cc1C(=O)NCc1cccnc1 [PICOTAMIDE]
- pIC50 [1]: 3.20
- pIC50 [2]: 3.36

Compound: CC(N/C(=N\C#N)Nc1ccncc1)C(C)(C)C (stereo unspecified) [PINACIDIL ANHYDROUS]
- pIC50 [1]: 3.65
- pIC50 [2]: 3.46

Compound: CNC(=C[N+](=O)[O-])NCCSCc1ccc(CN(C)C)o1 [RANITIDINE]
- pIC50 [1]: < 3.00
